# Experimental data: ChEMBL document CHEMBL3785036 (J Pharm Sci, 1974)
# Key:
# Format in all cases: ADME, organism-based
# [1] = Drug metabolism in human slow inactivators assessed as excretion of isonicotinuric acid in urine at 1 g, iv by colorimetry; details: in vivo
# [2] = Drug excretion in human subject slow inactivator assessed as sum of isoniazid plus hydrazones, acetylisoniazid, isonicotinic acid and isonicotinuric acid level in urine at 681 mg, iv infused at constant rate 5.4 min measured 35.5 mins after start of drug injection by colorimetry; details: in vivo
# [3] = Drug excretion in human subject slow inactivator assessed as sum of isoniazid plus hydrazones, acetylisoniazid, isonicotinic acid and isonicotinuric acid level in urine at 681 mg, iv infused at constant rate 5.4 min measured 150 mins after start of drug injection by colorimetry; details: in vivo, 2.5 h
# [4] = Drug excretion in human subject slow inactivator assessed as sum of isoniazid plus hydrazones, acetylisoniazid, isonicotinic acid and isonicotinuric acid level in urine at 681 mg, iv infused at constant rate 5.4 min measured 243.5 mins after start of drug injection by colorimetry; details: in vivo
# [5] = Drug excretion in human subject slow inactivator assessed as sum of isoniazid plus hydrazones, acetylisoniazid, isonicotinic acid and isonicotinuric acid level in urine at 681 mg, iv infused at constant rate 5.4 min measured 276.3 mins after start of drug injection by colorimetry; details: in vivo, 4.605 h
# [6] = Drug excretion in human subject rapid inactivator assessed as total isonicotinoyl compound level in urine at 670 mg, iv infused at constant rate 5.2min measured 458 mins after start of drug injection by colorimetry; details: in vivo
# [7] = Drug excretion in human subject rapid inactivator assessed as total isonicotinoyl compound level in urine at 670 mg, iv infused at constant rate 5.2min measured 486 mins after start of drug injection by colorimetry; details: in vivo, 8.1 h
# [8] = Drug excretion in human subject slow inactivator assessed as sum of isoniazid plus hydrazones, acetylisoniazid, isonicotinic acid and isonicotinuric acid level in urine at 681 mg, iv infused at constant rate 5.4 min measured 339.3 mins after start of drug injection by colorimetry; details: in vivo, 5.655 h
# [9] = Drug excretion in human subject slow inactivator assessed as sum of isoniazid plus hydrazones, acetylisoniazid, isonicotinic acid and isonicotinuric acid level in urine at 681 mg, iv infused at constant rate 5.4 min measured 430.2 mins after start of drug injection by colorimetry; details: in vivo, 7.17 h
# [10] = Drug excretion in human subject slow inactivator assessed as sum of isoniazid plus hydrazones, acetylisoniazid, isonicotinic acid and isonicotinuric acid level in urine at 681 mg, iv infused at constant rate 5.4 min measured 466 mins after start of drug injection by colorimetry; details: in vivo
# [11] = Drug excretion in human subject slow inactivator assessed as sum of isoniazid plus hydrazones, acetylisoniazid, isonicotinic acid and isonicotinuric acid level in urine at 681 mg, iv infused at constant rate 5.4 min measured 524 mins after start of drug injection by colorimetry; details: in vivo
# [12] = Drug excretion in human subject slow inactivator assessed as sum of isoniazid plus hydrazones, acetylisoniazid, isonicotinic acid and isonicotinuric acid level in urine at 681 mg, iv infused at constant rate 5.4 min measured 554 mins after start of drug injection by colorimetry; details: in vivo
# [13] = Drug excretion in human subject slow inactivator assessed as total isonicotinoyl compound level in urine at 681 mg, iv infused at constant rate 5.4 min measured 59.1 mins after start of drug injection by colorimetry; details: in vivo, 0.985 h
# [14] = Drug excretion in human subject slow inactivator assessed as total isonicotinoyl compound level in urine at 681 mg, iv infused at constant rate 5.4 min measured 116 mins after start of drug injection by colorimetry; details: in vivo
# [15] = Drug excretion in human subject slow inactivator assessed as total isonicotinoyl compound level in urine at 681 mg, iv infused at constant rate 5.4 min measured 396 mins after start of drug injection by colorimetry; details: in vivo, 6.6 h
# [16] = Drug excretion in human subject slow inactivator assessed as total isonicotinoyl compound level in urine at 681 mg, iv infused at constant rate 5.4 min measured 430.2 mins after start of drug injection by colorimetry; details: in vivo, 7.17 h
# [17] = Drug excretion in human subject slow inactivator assessed as total isonicotinoyl compound level in urine at 681 mg, iv infused at constant rate 5.4 min measured 466 mins after start of drug injection by colorimetry; details: in vivo
# [18] = Drug excretion in human rapid inactivators urine assessed as total isonicotinoyl compounds at 1 g, iv by colorimetry; details: in vivo
# [19] = Drug excretion in human slow inactivators urine assessed as total isonicotinoyl compounds at 1 g, iv by colorimetry; details: in vivo
# [20] = Drug excretion in human rapid inactivators urine at 1 g, iv by colorimetry; details: in vivo
# [21] = Drug excretion in human subject rapid inactivator assessed as sum of isoniazid plus hydrazones, acetylisoniazid, isonicotinic acid and isonicotinuric acid level in urine at 670 mg, iv infused at constant rate 5.2min measured 227 mins after start of drug injection by colorimetry; details: in vivo
# [22] = Drug excretion in human subject rapid inactivator assessed as sum of isoniazid plus hydrazones, acetylisoniazid, isonicotinic acid and isonicotinuric acid level in urine at 670 mg, iv infused at constant rate 5.2min measured 296 mins after start of drug injection by colorimetry; details: in vivo
# [23] = Drug excretion in human subject rapid inactivator assessed as sum of isoniazid plus hydrazones, acetylisoniazid, isonicotinic acid and isonicotinuric acid level in urine at 670 mg, iv infused at constant rate 5.2min measured 373 mins after start of drug injection by colorimetry; details: in vivo
# [24] = Drug excretion in human subject rapid inactivator assessed as sum of isoniazid plus hydrazones, acetylisoniazid, isonicotinic acid and isonicotinuric acid level in urine at 670 mg, iv infused at constant rate 5.2min measured 458 mins after start of drug injection by colorimetry; details: in vivo
# [25] = Drug excretion in human subject rapid inactivator assessed as sum of isoniazid plus hydrazones, acetylisoniazid, isonicotinic acid and isonicotinuric acid level in urine at 670 mg, iv infused at constant rate 5.2min measured 516 mins after start of drug injection by colorimetry; details: in vivo
# [26] = Drug excretion in human subject rapid inactivator assessed as total isonicotinoyl compound level in urine at 670 mg, iv infused at constant rate 5.2min measured 62 mins after start of drug injection by colorimetry; details: in vivo
# [27] = Drug excretion in human subject rapid inactivator assessed as total isonicotinoyl compound level in urine at 670 mg, iv infused at constant rate 5.2min measured 158 mins after start of drug injection by colorimetry; details: in vivo
# [28] = Drug excretion in human subject rapid inactivator assessed as total isonicotinoyl compound level in urine at 670 mg, iv infused at constant rate 5.2min measured 259 mins after start of drug injection by colorimetry; details: in vivo
# [29] = Drug excretion in human subject rapid inactivator assessed as total isonicotinoyl compound level in urine at 670 mg, iv infused at constant rate 5.2min measured 373 mins after start of drug injection by colorimetry; details: in vivo
# [30] = Drug excretion in human subject rapid inactivator assessed as total isonicotinoyl compound level in urine at 670 mg, iv infused at constant rate 5.2min measured 400 mins after start of drug injection by colorimetry; details: in vivo
# [31] = Drug excretion in human subject rapid inactivator assessed as total isonicotinoyl compound level in urine at 670 mg, iv infused at constant rate 5.2min measured 426 mins after start of drug injection by colorimetry; details: in vivo, 7.1 h
smiles,measurement,setting,value
NNC(=O)c1ccncc1 [ISONIAZID],Drug metabolism,[1],14.2 %molar
same,Drug excretion,[2],44.45 mg
same,Drug excretion,[3],38.71 mg
same,Drug excretion,[4],37.21 mg
same,Drug excretion,[5],32.59 mg
same,Drug excretion,[6],17.2 mg
same,Drug excretion,[7],12.5 mg
same,Drug excretion,[8],33.69 mg
same,Drug excretion,[9],21.24 mg
same,Drug excretion,[10],20.23 mg
same,Drug excretion,[11],11.32 mg
same,Drug excretion,[12],13.38 mg
same,Drug excretion,[13],33.7 mg
same,Drug excretion,[14],32 mg
same,Drug excretion,[15],16.5 mg
same,Drug excretion,[16],20 mg
same,Drug excretion,[17],20 mg
same,Drug excretion,[18],98.8%
same,Drug excretion,[19],98.8%
same,Drug excretion,[20],3.6 %molar
same,Drug excretion,[21],38.5 mg
same,Drug excretion,[22],39.4 mg
same,Drug excretion,[23],28 mg
same,Drug excretion,[24],17.3 mg
same,Drug excretion,[25],16.8 mg
same,Drug excretion,[26],43.3 mg
same,Drug excretion,[27],51.7 mg
same,Drug excretion,[28],39.7 mg
same,Drug excretion,[29],28.7 mg
same,Drug excretion,[30],18.5 mg
same,Drug excretion,[31],17.1 mg
